Laboratory results taken from patent publication US9765039B2, “Biaryl derivatives as bromodomain inhibitors” (Zenith Epigenetics Ltd., priority 2012, dated 2017).

Key:
Brd4 bromodomain 1 = target: T1, Brd4 bromodomain 1 (Homo sapiens, UniProt O60885); test: Inhibition of tetra-acetylated histone H4 binding to BET bromodomains (TR-FRET); set-up: key: Active: Compounds with an IC50 value less than 30 μM were deemed to be active.; Not Active: Compounds with an IC50 value less than 30 μM were deemed to be active; settings: first bromodomain of Brd4, tetra-acetylated histone H4 peptide
T1 construct: made in house; host or cells: E. coli BL21(DE3)
Procedure: Proteins were cloned and overexpressed with a N-terminal 6×His tag, then purified by nickel affinity followed by size exclusion chromatography. Briefly, E. coli BL21(DE3) cells were transformed with a recombinant expression vector encoding N-terminally Nickel affinity tagged bromodomains from Brd2, Brd3, Brd4. Cell cultures were incubated at 37° C. with shaking to the appropriate density and induced overnight with IPTG. The supernatant of lysed cells was loaded onto Ni-IDA column for purification. Eluted protein was pooled, concentrated and further purified by size exclusion chromatography. Fractions representing monomeric protein were pooled, concentrated, aliquoted, and frozen at −80° C. for use in subsequent experiments.
Binding of tetra-acetylated histone H4 and BET bromodomains was confirmed by a Time Resolved Fluorescence Resonance Energy Transfer (TR-FRET) method. N-terminally His-tagged bromodomains (200 nM) and biotinylated tetra-acetylated histone H4 peptide (25-50 nM, Millipore) were incubated in the presence of Europium Cryptate-labeled streptavidin (Cisbio Cat. #610SAKLB) and XL665-labeled monoclonal anti-His antibody (Cisbio Cat. #61HISXLB) in a white 96 well microtiter plate (Greiner). For inhibition assays, serially diluted test compound was added to these reactions in a 0.2% final concentration of DMSO. Final buffer concentrations were 30 mM HEPES pH 7.4, 30 mM NaCl, 0.3 mM CHAPS, 20 mM phosphate pH 7.0, 320 mM KF, 0.08% BSA). After 2 hours incubation at room temperature, the fluorescence by FRET was measured at 665 and 620 nm by a SynergyH4 plate reader (Biotek). Illustrative results with the first bromodomain of Brd4 are shown below (Table 1). The binding inhibitory activity was shown by a decrease in 665 nm fluorescence relative to 620 nm. IC50 values were determined from a dose response curve.

c-myc = test: Inhibition of c-myc expression in cancer cell lines (mRNA, real-time PCR); assay type: cell-based; set-up: key: Active: Compounds with an IC50 value less than 30 μM were deemed to be active; settings: Human AML MV4-11 cells, 3 hours
Procedure: MV4-11 cells (2.5×10^4 cells) were plated in 96 well U-bottom plates with test compound or DMSO (0.1%), and incubated for 3 hours at 37° C. Cells were then harvested by centrifugation, lysed, and mRNA was isolated using the mRNA catcher plus kit (Invitrogen). Reverse transcription of the mRNA and duplex amplification of the c-myc and cyclophilin cDNAs was performed using the RNA Ultrasense kit (Invitrogen) and a ViiA7 real-time PCR machine (Applied Biosystems). IC50 values were determined from a dose response curve.

Human AML MV-4-11 cells = test: Inhibition of cell proliferation in cancer cell lines (CellTiter Aqueous One); assay type: cell-based; set-up: key: Active: Compounds with an IC50 value less than 30 μM were deemed to be active.; Not Active: Compounds with an IC50 value less than 30 μM were deemed to be active; settings: 72 hours
Procedure: MV4-11 cells: 96-well plates were seeded with 5×10^4 cells per well of exponentially growing human AML MV-4-11 (CRL-9591) cells and immediately treated with two-fold dilutions of test compounds, ranging from 30 μM to 0.2 μM. Triplicate wells were used for each concentration, as well as a media only and three DMSO control wells. The cells and compounds were incubated at 37° C., 5% CO2 for 72 hours before adding 20 μL of the CellTiter Aqueous One Solution (Promega) to each well and incubating at 37° C., 5% CO2 for an additional 3-4 hours. The absorbance was taken at 490 nm in a spectrophotometer and the percentage of proliferation relative to DMSO-treated cells was calculated after correction from the blank well. IC50 were calculated using the GraphPad Prism software.

hIL-6 mRNA = test: Inhibition of hIL-6 mRNA transcription in LPS-stimulated U937 macrophages; assay type: cell-based, human; set-up: key: Active: Compounds with an IC50 value less than 30 μM are deemed to be active; settings: U937 differentiated into macrophages, 1 h pretreatment, lipopolysaccharide 3 h
Procedure: In this example, hIL-6 mRNA in tissue culture cells was quantitated to measure the transcriptional inhibition of hIL-6 when treated with a compound of the present disclosure.
A human leukemic monocyte lymphoma cell line (U937) was plated (3.2×10^4 cells per well) in a 96-well plate in 100 μL RPMI-1640 containing 10% FBS and penicillin/streptomycin, and differentiated into macrophages for 3 days in 60 ng/mL PMA ([…]) at 37° C. in 5% CO2 prior to the addition of the compound of interest. The cells were pretreated for 1 h with the test compound prior to stimulation with […] lipopolysaccharide from Escherichia coli. The cells were incubated at 37° C. for 3 h before the cells were harvested. At time of harvest, the spent media was removed from the cells and the cells were rinsed in 200 μL PBS. Cell lysis solution (70 μL) was added the cells in each well and incubated for 5-10 min at room temperature, to allow for complete cell lysis and detachment. mRNA was then prepared using the “mRNA Catcher PLUS plate” (Invitrogen), according to the protocol supplied. After the last wash, as much wash buffer as possible was aspirated without allowing the wells to dry. Elution buffer (E3, 70 μL) was then added to each well. mRNA was then eluted by incubating the mRNA Catcher PLUS plate with Elution Buffer for 5 min at 68° C. and then immediately placing the plate on ice.
The eluted mRNA isolated was then used in a one-step quantitative real-time PCR reaction, using components of the Ultra Sense Kit together with Applied Biosystems primer-probe mixes. Real-time PCR data was analyzed, normalizing the Ct values for hIL-6 to an internal control, prior to determining the fold induction of each unknown sample, relative to the control.

hApoA-1 mRNA = test: Up-regulation of hApoA-1 mRNA transcription in Huh7 cells; assay type: cell-based, human; set-up: key: Active: Compounds with an EC170 value less than 30 μM are deemed to be active.; Not Active: Compounds with an EC170 value less than 30 μM are deemed to be active; settings: 48 hrs treatment, ApoA-I mRNA
Procedure: In this example, ApoA-I mRNA in tissue culture cells was quantitated to measure the transcriptional up-regulation of ApoA-I when treated with a compound of the present disclosure.
Huh7 cells ([…] per well) were plated in a 96-well plate using 100 μL DMEM per well, (Gibco DMEM supplemented with penicillin/streptomycin and 10% FBS), 24 h before the addition of the compound of interest. After 48 hrs treatment, the spent media was removed from the Huh-7 cells and placed on ice (for immediate use) or at −80° C. (for future use) with the “LDH cytotoxicity assay Kit II” from Abcam. The cells remaining in the plate were rinsed with 100 μL PBS.
Then 85 μL of cell lysis solution was added to each well and incubated for 5-10 minutes at room temperature, to allow for complete cell lysis and detachment. mRNA was then prepared using the “mRNA Catcher PLUS plate” from Life Technologies, according to the protocol supplied. After the last wash, as much wash buffer as possible was aspirated without allowing the wells to dry. Elution Buffer (E3, 80 μL) was then added to each well. mRNA was then eluted by incubating the mRNA Catcher PLUS plate with Elution Buffer for 5 minutes at 68° C., and then 1 minute at 4° C. Catcher plates with mRNA eluted were kept on ice for use or stored at −80° C.
The eluted mRNA isolated was then used in a one-step real-time PCR reaction, using components of the Ultra Sense Kit together with Life Technologies primer-probe mixes. Real-time PCR data was analyzed, using the Ct values, to determine the fold induction of each unknown sample, relative to the control (that is, relative to the control for each independent DMSO concentration).
Compounds with an EC170 value less than 30 μM are deemed to be active.

Row | FRET activity (IC50 < 30 μM) (Brd4 bromodomain 1) | c-myc activity (IC50 < 30 μM) (c-myc) | cell proliferation activity (IC50 < 30 μM) (Human AML MV-4-11 cells) | IL-6 activity (IC50 < 30 μM) (hIL-6 mRNA) | melting point | Compound | ApoA-1 Activity (EC170 < 30 μM) (hApoA-1 mRNA)
1 | Active | Active | Active | Active | – | CCS(=O)(=O)c1ccc(-c2nc(-c3nc4cc(OC)cc(OC)c4c(=O)[nH]3)ccc2OCCN2CCCC2)cc1 [Example 42, 2-(6-(4-(Ethylsulfonyl)phenyl)-5-(2-(pyrrolidin-1-yl)ethoxy)pyridin-2-yl)-5,7-dimethoxyquinazolin-4(3H)-one] | Not Active
2 | Active | Active | Active | Not Active | 195 to 197 °C | CCS(=O)(=O)c1ccc(-c2nc(-c3nc4cc(OC)cc(OC)c4c(=O)[nH]3)ccc2OCCNC(C)C)cc1 [Example 35, 2-(6-(4-(Ethylsulfonyl)phenyl)-5-(2-(isopropylamino)ethoxy)pyridin-2-yl)-5,7-dimethoxyquinazolin-4(3H)-one] | –
3 | Active | Not Active | Not Active | Active | 289 to 290 °C | COc1cc(OC)c2c(=O)[nH]c(-c3cccc(-c4ccc([S+](C)[O-])s4)c3)nc2c1 (centres unmarked) [Example 51, 5,7-Dimethoxy-2-(3-(5-(methylsulfinyl)thiophen-2-yl)phenyl)quinazolin-4(3H)-one] | –
4 | Active | Active | Active | Active | 179 to 180 °C | COc1cc(OC)c2c(=O)[nH]c(-c3ccc(OCCNC(C)C)c(-c4ccccc4)n3)nc2c1 [Example 22, 2-(5-(2-(Isopropylamino)ethoxy)-6-phenylpyridin-2-yl)-5,7-dimethoxyquinazolin-4(3H)-one] | –
5 | Not Active | Not Active | Not Active | Active | > 300 °C | COc1cc(OC)c2c(=O)[nH]c(-c3cc(-c4ccc([S+](C)[O-])cc4)cs3)nc2c1 (centres unmarked) [Example 48, 5,7-Dimethoxy-2-(4-(4-(methylsulfinyl)phenyl)thiophen-2-yl)quinazolin-4(3H)-one] | –
6 | Not Active | Not Active | Not Active | Active | 271 to 272 °C | COc1cc(OC)c2c(=O)[nH]c(-c3ccc(OC)c(-c4ccc(C(=O)N(C)C)cc4Cl)n3)nc2c1 [Example 56, 3-Chloro-4-(6-(5,7-dimethoxy-4-oxo-3,4-dihydroquinazolin-2-yl)-3-methoxypyridin-2-yl)-N,N-dimethylbenzamide] | –
7 | Active | Not Active | Not Active | Active | 167 to 170 °C | COc1cc(OC)c2c(=O)[nH]c(-c3ccc(OCC[N+]4([O-])CCCC4)c(-c4ccc(S(C)(=O)=O)cc4)n3)nc2c1 [Example 63, 1-(2-((6-(5,7-Dimethoxy-4-oxo-3,4-dihydroquinazolin-2-yl)-2-(4-(methylsulfonyl)phenyl)pyridin-3-yl)oxy)ethyl)pyrrolidine 1-oxide] | –
8 | Active | Not Active | Not Active | Active | 308 to 310 °C | COc1ccc(-c2nc3cccc(OC)c3c(=O)[nH]2)nc1-c1ccc([S+](C)[O-])cc1 (centres unmarked) [Example 57, 5-Methoxy-2-(5-methoxy-6-(4-(methylsulfinyl)phenyl)pyridin-2-yl)quinazolin-4(3H)-one] | –
9 | Active | Not Active | Not Active | Active | 316 °C (dec.) | COc1cc(OC)c2c(=O)[nH]c(-c3cc(-c4ccc([S+](C)[O-])cc4)c4[nH]ccc4c3)nc2c1 (centres unmarked) [Example 52, 5,7-Dimethoxy-2-(7-(4-(methylsulfinyl)phenyl)-1H-indol-5-yl)quinazolin-4(3H)-one] | –
10 | Active | Not Active | Not Active | Not Active | 266 to 267 °C | COc1ccc2c(=O)[nH]c(-c3ccc(OCCO)c(-c4ccc([S+](C)[O-])cc4)n3)nc2c1 (centres unmarked) [Example 60, 2-(5-(2-Hydroxyethoxy)-6-(4-(methylsulfinyl)phenyl)pyridin-2-yl)-7-methoxyquinazolin-4(3H)-one] | –
